Consider 6 compounds from paper PMC12472512, “Design, Synthesis, In Silico Docking, Multitarget Bioevaluation and Molecular Dynamic Simulation of Novel Pyrazolo[3,4-d]Pyrimidinone Derivatives as Potential In Vitro and In Vivo Anti-Inflammatory Agents” (Pharmaceuticals, 2025).

Where “and” joins values, the source holds several entries; their conditions need not be identical. Equal values may be shown once. Entries after “also recorded” stand apart in the source; their conditions may differ.

For one data set, the system named is TNF-α. Description: ELISA of serum TNF-α in carrageenan-treated mice. The data set is classed as in vivo. The conditions noted are these: 50 mg/kg; carrageenan-treated mice at 3 h; compared to the control group. As for the experimental part: To evaluate the anti-inflammatory mechanisms of these compounds, two key chemical mediators, TNF-α and IL-6, were assessed using enzyme-linked immunosorbent assay (ELISA).
(§1) All mice were sacrificed under anesthesia using ketamine/xylazine (50/15 mg/kg). Blood was collected for the ELISA assays to determine the levels of cytokines TNF-α and IL-6 using the Rat IL6 (Interleukin 6) ELISA Kit and Rat TNFα ELISA Kit (MyBioSource, San Diego, CA, USA), in accordance with the manufacturer’s instructions. The quantitative sandwich enzyme immunoassay technique is the fundamental principle of the TNF-α assay. A microplate was pre-coated with an antibody specific for TNF-α. Standards and samples were pipetted into the wells, and the immobilized antibody bound to any TNF-α that was present. A biotin-conjugated antibody that was specific for TNF-α was introduced to the wells after any unbound substances were removed. Horseradish peroxidase (HRP) conjugated with avidin was introduced to the wells subsequent to the cleaning process. After a wash to eliminate any unbound avidin–enzyme reagent, a substrate solution was introduced to the wells, and the color developed in proportion to the quantity of TNF-α bound in the initial step. The color development was halted, and the color intensity was quantified. Additionally, the Sandwich enzyme immunoassay is the test principle utilized for IL-6. The microtiter plates included in this preparation were pre-coated with an antibody that was specific to Rat IL6. A biotin-conjugated antibody specific to Rat IL6 was then added to the appropriate microtiter plate wells along with standards or samples. Subsequently, each microplate well was incubated with avidin conjugated to horseradish peroxidase (HRP). […] The addition of sulfuric acid solution terminated the enzyme–substrate reaction, and the color change was observed spectrophotometrically at a wavelength of 450 nm ± 10 nm. The concentration of Rat IL6 in the samples was subsequently determined by comparing the OD of the samples to the standard curve.
Blood was collected immediately following the decapitation of mice, performed in accordance with the institutional animal care and use committee (IACUC) guidelines. After decapitation, whole blood was allowed to flow freely and was collected directly into EDTA and heparinized tubes. The whole blood was centrifuged at 3000× g for 10 min at 4 °C, and the plasma was carefully collected and stored at –80 °C until further analysis.
(ELISA stands for enzyme-linked immunosorbent assay.)

The next data set concerns the target T1, human recombinant COX-2 (Homo sapiens, UniProt P35354).
T1 sequence (P35354 18-604): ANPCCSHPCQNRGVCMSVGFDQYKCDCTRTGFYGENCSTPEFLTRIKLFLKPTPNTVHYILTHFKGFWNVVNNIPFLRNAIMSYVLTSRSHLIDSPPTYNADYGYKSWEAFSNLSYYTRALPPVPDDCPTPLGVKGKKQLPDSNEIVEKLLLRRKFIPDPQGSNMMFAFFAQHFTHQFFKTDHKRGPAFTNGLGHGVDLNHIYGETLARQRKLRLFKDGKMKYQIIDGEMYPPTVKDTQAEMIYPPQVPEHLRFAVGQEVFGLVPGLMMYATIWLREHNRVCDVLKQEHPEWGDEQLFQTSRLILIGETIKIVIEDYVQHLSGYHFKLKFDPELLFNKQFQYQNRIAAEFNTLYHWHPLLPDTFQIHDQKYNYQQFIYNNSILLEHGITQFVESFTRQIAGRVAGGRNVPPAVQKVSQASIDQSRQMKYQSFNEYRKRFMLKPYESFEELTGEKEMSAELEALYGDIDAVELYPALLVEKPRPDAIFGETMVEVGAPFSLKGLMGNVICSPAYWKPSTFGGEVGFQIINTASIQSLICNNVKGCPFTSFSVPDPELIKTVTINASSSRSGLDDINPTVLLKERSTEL
As to the kind of experiment: In vitro COX-2 inhibition, fluorescent inhibitor screening assay kit.

The subject of another data set is IL-6. As to the kind of experiment: ELISA of serum IL-6 in carrageenan-treated mice. The data set is classed as in vivo. The conditions noted are these: 50 mg/kg; carrageenan-treated mice at 3 h. As for the experimental part: Therefore, the anti-inflammatory activity of the tested compounds may hinge on their ability to suppress the pro-inflammatory TNF-α and IL-6 levels.
as §1, with “curve. […]” for “curve.”

The test system of the next data set is gastric mucosa. As to the kind of experiment: Histopathological examination of stomach sections (H&E).
The subject of data set [1] is carrageenan-induced paw edema. As to the kind of experiment: In vivo carrageenan-induced paw edema. The following applies: 50 mg/kg oral, mice. In general terms: In the carrageenan paw model, swelling and tenderness develop within hours.
The next data set has as its target T2, COX-1 (Ovis aries, UniProt P05979).
T2 sequence (P05979 25-600): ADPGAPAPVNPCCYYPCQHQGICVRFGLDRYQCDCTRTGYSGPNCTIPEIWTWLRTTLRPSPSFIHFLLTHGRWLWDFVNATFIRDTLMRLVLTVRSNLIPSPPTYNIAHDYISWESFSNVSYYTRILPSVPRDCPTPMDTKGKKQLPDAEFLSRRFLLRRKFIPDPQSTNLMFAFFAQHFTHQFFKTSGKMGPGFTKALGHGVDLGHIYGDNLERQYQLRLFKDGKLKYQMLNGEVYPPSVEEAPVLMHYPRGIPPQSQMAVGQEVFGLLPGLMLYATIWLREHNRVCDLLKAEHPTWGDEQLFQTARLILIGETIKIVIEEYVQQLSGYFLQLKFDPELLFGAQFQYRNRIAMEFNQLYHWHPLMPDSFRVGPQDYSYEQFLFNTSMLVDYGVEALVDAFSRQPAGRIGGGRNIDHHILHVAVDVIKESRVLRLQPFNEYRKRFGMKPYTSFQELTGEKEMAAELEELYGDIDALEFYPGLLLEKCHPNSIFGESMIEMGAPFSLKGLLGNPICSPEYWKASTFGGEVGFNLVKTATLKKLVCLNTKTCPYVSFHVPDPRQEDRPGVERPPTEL
As to the kind of experiment: In vitro COX-1 inhibition, fluorescent inhibitor screening assay kit.

The next data set relates to COX-2. Further details: method as in PMID 19479756. The following applies: cited from earlier work.
Setting [2] is: stomach sections stained with H&E, 50 mg/kg.

Procedure for COX-1: (§2) Test compounds, dissolved in DMSO, and were pre-incubated with the enzymes at 37 °C for 5 min before initiating the reaction with 1 mM arachidonic acid under light-protected conditions. The fluorescence was measured using a multi-well spectrophotometer (fluorescence plate reader). […] The percentage inhibition was calculated by comparing the absorbance values of the compounds to the vehicle control.
(§3) This protocol utilizes a colorimetric assay to measure the peroxidase activity of Prostaglandin G/H
(§4) Synthase (COX enzyme). The COX enzyme converts Arachidonic Acid (AA) to Prostaglandin G2
(§5) (PGG2), which is then reduced to Prostaglandin H2 (PGH2) by the inherent peroxidase activity.
(§6) peroxidase reaction co-oxidizes a chromogen, such as N,N,N',N'-Tetramethyl-p-phenylenediamine
(§7) (TMPD), resulting in a colored product that can be measured spectrophotometrically at 590-630 nm.
(§8) inhibition of COX enzyme by a test compound reduces the formation of this colored product, allowing
(§9) for the calculation of percentage inhibition and subsequent IC50 values.
(§10) o Ovine COX-1 (purified, commercially available)
(§11) • Substrate: Arachidonic Acid (AA). Prepare a stock solution in ethanol. Note: AA is unstable;
(§12) aliquot and store under inert gas (e.g., Argon) at -80°C.
(§13) • Cofactor: Hemin. Prepare a stock solution in DMSO.
(§14) • Chromogen: N,N,N',N'-Tetramethyl-p-phenylenediamine (TMPD) dihydrochloride.
(§15) • Assay Buffer: 100 mM Tris-HCl buffer, pH 8.0. May contain 1-5 mM EDTA and 1-2 µM
Phenol (acts as a cofactor for COX-2).
(§16) • Solvents: Dimethyl Sulfoxide (DMSO), Ethanol (absolute).
(§17) consistent across all wells (typically ≤1% final concentration).
o Keep all dilutions on ice.
(§18) o COX-1 Working Solution: Dilute ovine COX-1 in ice-cold assay buffer to a final
(§19) concentration of ~50-100 U/mL. Add Hemin to a final concentration of 1 µM.
(§20) o Note: The exact enzyme units (U) required must be determined by a preliminary activity
(§21) test to ensure the reaction is linear and within the dynamic range of the assay.
(§22) Substrate/Chromogen Solution (Prepare Fresh):
(§23) o To a tube containing assay buffer, add TMPD to a final concentration of 0.2-0.5 mM.
(§24) o Add Arachidonic Acid to a final concentration of 100 µM. Vortex gently.
(§25) o Keep this solution protected from light and on ice until use.
(§26) Assay Setup (Performed in duplicate or triplicate)
Procedure for human recombinant COX-2: as §2, §3, §4, §5, §6, §7, §8, §9, §10, §11, §12, §13, §14, §15
Phenol (acts as a cofactor for COX-2).
as §16, §17
o Keep all dilutions on ice.
as §18, §19, §20, §21, §22, §23, §24, §25, §26

For orientation: IC50 means the midpoint of a concentration-inhibition curve. Take `CC(=NO)c1ccc(NC(=O)Cn2cnc3c(cnn3-c3ccccc3)c2=O)cc1` [Compound 5m, N-(4-(1-(Hydroxyimino)Ethyl)Phenyl)-2-(4-Oxo-1-Phenyl-1,4-Dihydro-5H-Pyrazolo[3,4-d]Pyrimidin-5-yl) Acetamide]: the “TNF-α levels in serum” value with TNF-α was “significantly reduced”. The IC50 came out at 2.34 ± 0.08 µM on human recombinant COX-2 and 57.3 ± 1.93 µM against COX-1. The “SI, in vitro COX-2 selectivity index (COX-1 IC50/COX-2 IC50)” value at human recombinant COX-2 was 24.47. In addition, the COX2 %inh on human recombinant COX-2 (conc 0.1 (uM)) is listed as -448%; on human recombinant COX-2 (conc 1 (uM)), -273%; at human recombinant COX-2 (conc 10 (uM)), -103%; on human recombinant COX-2 (conc 100 (uM)) it was 46.6%. In addition, in the data set on IL-6, the “IL-6 levels in serum” value is “significantly reduced”. Moreover, the “histological structure of the gastric mucosa” value (“histological structure” below) with gastric mucosa (stomach sections stained with H&E; 50 mg/kg) was “normal histological structure of the gastric mucosa”. Moreover, the “Percentage of inhibition of carrageenan-induced paw edema” value is on record as 3.43% in data set [1] (1 h); 58.01% in data set [1] (2 h, 50 mg/kg); 39.85% in data set [1] (3 h). In addition, the COX1 %inh is 0.27% on COX-1 (conc 0.01 (uM)); 6.51% on COX-1 (conc 0.1 (uM)); 12.3% at COX-1 (conc 1 (uM)); 24.6% at COX-1 (conc 10 (uM)); 69.2% on COX-1 (conc 100 (uM)).

Turning to `O=C(Cn1cnc2c(cnn2-c2ccccc2)c1=O)N(c1ccccc1)c1ccccc1` [Compound 5k, 2-(4-Oxo-1-Phenyl-1,4-Dihydro-5H-Pyrazolo[3,4-d]Pyrimidin-5-yl)-N, N-Diphenyl Acetamide], the “TNF-α levels in serum” value with TNF-α is “significantly reduced”. Further, the half-inhibitory concentration (IC50) on human recombinant COX-2 is 0.266 ± 0.009 µM; against COX-1, 25.5 ± 0.86 µM. The “SI, in vitro COX-2 selectivity index (COX-1 IC50/COX-2 IC50)” value at human recombinant COX-2 was 95.8 and 95.75. Further, the COX2 %inh at human recombinant COX-2 (conc 0.01 (uM)) was -394%; at human recombinant COX-2 (conc 0.1 (uM)), -266%; at human recombinant COX-2 (conc 1 (uM)) it was -76%; on human recombinant COX-2 (conc 10 (uM)), 14.6%; on human recombinant COX-2 (conc 100 (uM)), 67.8%. Besides, in the data set with IL-6, the “IL-6 levels in serum” value is reported as “significantly reduced”. Further, the “histological structure” value in the data set with gastric mucosa (setting [2]) was “preserved gastric tissue integrity; also recorded: intact gastric tissue; also recorded: normal histological structure of the gastric mucosa”. The “Percentage of inhibition of carrageenan-induced paw edema” value in data set [1] (1 h) was 31.46%; in data set [1] (2 h) it was 44.88%; in data set [1] (3 h, 50 mg/kg) it was 54.89%. The COX1 %inh came to 0.72% on COX-1 (conc 0.01 (uM)); 5.18% at COX-1 (conc 0.1 (uM)); 15% at COX-1 (conc 1 (uM)); 31.4% at COX-1 (conc 10 (uM)); 74.9% at COX-1 (conc 100 (uM)).

As to `CS(=O)(=O)Nc1ccc([N+](=O)[O-])cc1OC1CCCCC1` [NS398], the IC50 in the data set on COX-2 was […].

Turning to `O=C(Cn1cnc2c(cnn2-c2ccccc2)c1=O)Nc1ccc2ccccc2c1` [Compound 5j, N-(Naphthalen-2-yl)-2-(4-Oxo-1-Phenyl-1,4-Dihydro-5H-Pyrazolo[3,4-d]Pyrimidin-5-yl) Acetamide], the “TNF-α levels in serum” value in the data set with TNF-α was “significantly reduced”. Besides, the IC50 is 0.398 ± 0.014 µM at human recombinant COX-2 and 6.4 ± 0.22 µM against COX-1. For the same compound, the “SI, in vitro COX-2 selectivity index (COX-1 IC50/COX-2 IC50)” value on human recombinant COX-2 came to 16.09. Moreover, the COX2 %inh is on record as -425% on human recombinant COX-2 (conc 0.01 (uM)); -285% at human recombinant COX-2 (conc 0.1 (uM)); -103% on human recombinant COX-2 (conc 1 (uM)); 9.91% at human recombinant COX-2 (conc 10 (uM)); 54.8% on human recombinant COX-2 (conc 100 (uM)). Also, in the data set on IL-6, the “IL-6 levels in serum” value is reported as “significantly reduced; also recorded: highest inhibition of IL-6 levels, approaching normal levels”. Besides, the “histological structure” value in the data set with gastric mucosa (setting [2]) is reported as “preserved gastric tissue integrity; also recorded: intact gastric tissue; also recorded: normal histological structure of the gastric mucosa”. Besides, the “Percentage of inhibition of carrageenan-induced paw edema” value in data set [1] (1 h) stood at 28.35%; in data set [1] (2 h), 50.13%; in data set [1] (3 h, 50 mg/kg) it was 62.41%. Moreover, the COX1 %inh at COX-1 (conc 0.01 (uM)) is given as 1.32%; at COX-1 (conc 0.1 (uM)), 7.85%; at COX-1 (conc 1 (uM)), 19.2%; on COX-1 (conc 10 (uM)), 57.9%; on COX-1 (conc 100 (uM)) it was 80.1%.

As for `O=C(Nn1cnc2c(cnn2-c2ccccc2)c1=O)c1ccccc1` [Compound I], the 50% inhibitory concentration (IC50) in the data set with COX-2 is 78.9 µM.

Regarding `O=C(NCc1ccccc1)c1nc2c(cnn2-c2ccccc2)c(=O)[nH]1` [II], the 50% inhibitory concentration (IC50) in the data set with COX-2 is 23.8 µM.
